Values joined by “and” are separate entries in the source; they are usually repeats but may differ in a detail not shown here. Equal entries are not always repeated. “Also recorded” adds a separate entry of the source. Where two headings read alike, the source gives them in different places.
Assays:
[1] = target: CYP2B6 (Homo sapiens, UniProt P20813); test: CYP inhibition in human liver microsomes, CYP2B6
[2] = target: CYP2D6 (Homo sapiens, UniProt P10635); test: Metabolism by recombinant CYP2D6; format: in vitro ADME; design: from tissue; host or cells: human liver microsomes
From the text: (§1) In vitro biotransformation of Compound 1 primarily occurred at imidazolpyrrolopyrazinyl ethyl pyrrolidine moiety.

[3] = Metabolic stability in hepatocytes, rat; format: in vitro ADME; conditions: read-out: intrinsic clearance in hepatocytes (converted)
[4] = target: CYP3A5 (Homo sapiens, UniProt P20815); test: Metabolism by recombinant CYP3A5; format: in vitro ADME
From the text: as §1

[5] = Pharmacokinetics in rat; format: in vivo; conditions: for clearance: read-out: CLp (converted); for Vd: read-out: Vss
[6] = target: CYP2C19 (Homo sapiens, UniProt P33261); test: CYP inhibition in human liver microsomes, CYP2C19
[7] = female, Sprague-Dawley, rat, plasma, po, 50 mg/kg/day, rat F, oral 50 mg/kg/day, Day 1, mean (SD)
[8] = male, Sprague-Dawley, rat, plasma, po, 10 mg/kg/day, rat M, oral 10 mg/kg/day, Day 1, mean (SD)
[9] = male, Sprague-Dawley, rat, plasma, po, 100 mg/kg/day, rat M, oral 100 mg/kg/day, Day 1, mean (SD)
[10] = plasma, rat, IV 0.3 mg/kg single dose
[11] = plasma, rat, IV 0.3 mg/kg single dose, mean (SD)
[12] = plasma, rat, IV 3 mg/kg single dose
[13] = plasma, rat, IV 3 mg/kg single dose, mean (SD)
[14] = rat, plasma, po, 3 mg/kg, oral 3 mg/kg single dose, mean (SD)

Chain of CYP2C19 (P33261 whole entry): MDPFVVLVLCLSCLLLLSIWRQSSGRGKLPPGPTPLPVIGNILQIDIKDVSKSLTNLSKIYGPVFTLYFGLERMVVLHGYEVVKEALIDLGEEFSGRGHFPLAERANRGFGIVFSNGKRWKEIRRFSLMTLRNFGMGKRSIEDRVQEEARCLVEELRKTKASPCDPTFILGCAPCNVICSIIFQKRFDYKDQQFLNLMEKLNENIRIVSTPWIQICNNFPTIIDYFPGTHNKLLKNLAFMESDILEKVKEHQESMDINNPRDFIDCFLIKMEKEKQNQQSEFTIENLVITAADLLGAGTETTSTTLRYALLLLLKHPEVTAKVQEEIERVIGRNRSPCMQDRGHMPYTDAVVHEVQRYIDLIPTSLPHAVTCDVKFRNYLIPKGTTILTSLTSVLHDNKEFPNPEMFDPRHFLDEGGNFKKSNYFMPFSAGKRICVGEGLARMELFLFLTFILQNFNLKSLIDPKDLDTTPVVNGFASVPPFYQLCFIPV
Chain of CYP2B6 (P20813 whole entry): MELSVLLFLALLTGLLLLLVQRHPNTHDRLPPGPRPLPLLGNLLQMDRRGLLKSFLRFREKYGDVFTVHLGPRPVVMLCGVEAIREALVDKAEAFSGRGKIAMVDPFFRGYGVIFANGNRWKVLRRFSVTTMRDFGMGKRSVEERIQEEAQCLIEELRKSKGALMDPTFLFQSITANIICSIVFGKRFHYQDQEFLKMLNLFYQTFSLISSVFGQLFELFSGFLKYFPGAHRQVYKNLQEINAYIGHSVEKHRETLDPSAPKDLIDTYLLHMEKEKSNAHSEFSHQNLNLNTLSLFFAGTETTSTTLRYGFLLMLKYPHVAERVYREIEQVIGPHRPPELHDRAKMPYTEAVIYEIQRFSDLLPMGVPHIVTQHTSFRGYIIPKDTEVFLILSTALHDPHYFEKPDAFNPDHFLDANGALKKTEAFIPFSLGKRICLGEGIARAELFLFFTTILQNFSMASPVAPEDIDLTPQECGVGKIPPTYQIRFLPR
Chain of CYP3A5 (P20815 whole entry): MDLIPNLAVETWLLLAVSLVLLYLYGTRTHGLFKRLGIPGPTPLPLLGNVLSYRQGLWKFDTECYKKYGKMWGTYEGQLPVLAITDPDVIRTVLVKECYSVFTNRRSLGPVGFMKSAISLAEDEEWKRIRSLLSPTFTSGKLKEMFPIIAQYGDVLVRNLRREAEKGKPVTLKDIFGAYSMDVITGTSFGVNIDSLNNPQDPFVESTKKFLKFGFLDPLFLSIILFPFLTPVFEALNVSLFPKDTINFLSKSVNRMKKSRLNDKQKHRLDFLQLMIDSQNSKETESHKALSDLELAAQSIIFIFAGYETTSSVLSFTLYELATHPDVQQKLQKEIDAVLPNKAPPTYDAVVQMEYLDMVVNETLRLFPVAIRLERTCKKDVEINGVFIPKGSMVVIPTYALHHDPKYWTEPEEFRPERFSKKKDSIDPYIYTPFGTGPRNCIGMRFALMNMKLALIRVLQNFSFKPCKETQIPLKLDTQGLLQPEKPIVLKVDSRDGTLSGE
Chain of CYP2D6 (P10635 whole entry): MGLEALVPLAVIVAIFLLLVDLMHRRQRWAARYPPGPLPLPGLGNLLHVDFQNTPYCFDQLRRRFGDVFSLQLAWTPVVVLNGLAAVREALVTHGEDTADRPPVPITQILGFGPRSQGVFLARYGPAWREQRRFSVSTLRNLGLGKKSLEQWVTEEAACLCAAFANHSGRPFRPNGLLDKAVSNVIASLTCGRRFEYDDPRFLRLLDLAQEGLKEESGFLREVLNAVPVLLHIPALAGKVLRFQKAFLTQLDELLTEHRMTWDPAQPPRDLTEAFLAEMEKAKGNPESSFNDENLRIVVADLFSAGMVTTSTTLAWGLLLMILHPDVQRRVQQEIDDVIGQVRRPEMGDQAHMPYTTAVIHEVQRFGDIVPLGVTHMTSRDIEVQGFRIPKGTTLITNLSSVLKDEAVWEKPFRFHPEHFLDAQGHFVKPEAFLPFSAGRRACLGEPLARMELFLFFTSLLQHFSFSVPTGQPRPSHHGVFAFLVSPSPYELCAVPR

Q: What does the source list for `CC[C@@H]1CN(C(=O)NCC(F)(F)F)C[C@@H]1c1cnc2cnc3[nH]ccc3n12` [Compound 1, (3S,4R)-3-ethyl-4-(3H-imidazo[1,2-a]pyrrolo[2,3-e]pyrazin-8-yl)-N-(2,2,2-trifluoroethyl)pyrrolidine-1-carboxamide]?
A: time-dependent inhibition of CYP2B6 ([1]; human liver microsomes): No obvious time-dependent inhibition; inhibition of CYP2B6 ([1]; up to 30 μM): did not inhibit; also recorded: not an inhibitor; percentage of parent remaining [2]: 73.4%; CLint scaled at 1 μM [3]: 67.8 mL/min/kg; percentage of parent remaining [4]: 80.6%; AUC ([5]; female, Sprague-Dawley, plasma, rat F, oral 10 mg/kg/day, Day 1, mean (SD)): 1870 ng·h/mL; AUC at 29 days ([5]; female, Sprague-Dawley, plasma, rat F, oral 10 mg/kg/day, Day 29, mean (SD)): 2280 ng·h/mL; AUC ([5]; female, Sprague-Dawley, plasma, rat F, oral 50 mg/kg/day, Day 1, mean (SD)): 22400 ng·h/mL; AUC at 29 days ([5]; female, Sprague-Dawley, plasma, rat F, oral 50 mg/kg/day, Day 29, mean (SD)): 33200 ng·h/mL; AUC ([5]; female, Sprague-Dawley, plasma, rat F, oral 100 mg/kg/day, Day 1, mean (SD)): 54100 ng·h/mL; AUC at 29 days ([5]; female, Sprague-Dawley, plasma, rat F, oral 100 mg/kg/day, Day 29, mean (SD)): 63800 ng·h/mL; AUC ([5]; female, Sprague-Dawley, plasma, rat F, oral 200 mg/kg/day, Day 1, mean (SD)): 108000 ng·h/mL; Cmax ([5]; female, Sprague-Dawley, rat, plasma, po, 10 mg/kg/day, rat F, oral 10 mg/kg/day, Day 1, mean (SD)): 468 ng/mL; Cmax at 29 days ([5]; female, Sprague-Dawley, rat, plasma, po, 10 mg/kg/day, rat F, oral 10 mg/kg/day, Day 29, mean (SD)): 650 ng/mL; Cmax [5, 7]: 5160 ng/mL; Tmax [5, 7]: 2.2 h; Cmax ([5]; female, Sprague-Dawley, rat, plasma, po, 100 mg/kg/day, rat F, oral 100 mg/kg/day, Day 1, mean (SD)): 13500 ng/mL; Cmax ([5]; female, Sprague-Dawley, rat, plasma, po, 200 mg/kg/day, rat F, oral 200 mg/kg/day, Day 1, mean (SD)): 18200 ng/mL; AUC ([5]; male, Sprague-Dawley, plasma, rat M, oral 10 mg/kg/day, Day 1, mean (SD)): 1390 ng·h/mL; AUC at 29 days ([5]; male, Sprague-Dawley, plasma, rat M, oral 10 mg/kg/day, Day 29, mean (SD)): 1490 ng·h/mL; AUC ([5]; male, Sprague-Dawley, plasma, rat M, oral 50 mg/kg/day, Day 1, mean (SD)): 15900 ng·h/mL; AUC at 29 days ([5]; male, Sprague-Dawley, plasma, rat M, oral 50 mg/kg/day, Day 29, mean (SD)): 16800 ng·h/mL; AUC ([5]; male, Sprague-Dawley, plasma, rat M, oral 100 mg/kg/day, Day 1, mean (SD)): 24900 ng·h/mL; AUC at 29 days ([5]; male, Sprague-Dawley, plasma, rat M, oral 100 mg/kg/day, Day 29, mean (SD)): 40800 ng·h/mL; AUC ([5]; male, Sprague-Dawley, plasma, rat M, oral 200 mg/kg/day, Day 1, mean (SD)): 50400 ng·h/mL; Cmax [5, 8]: 224 ng/mL; Tmax [5, 8]: 2.2 h; Cmax ([5]; male, Sprague-Dawley, rat, plasma, po, 50 mg/kg/day, rat M, oral 50 mg/kg/day, Day 1, mean (SD)): 3030 ng/mL; Cmax [5, 9]: 3910 ng/mL; Tmax [5, 9]: 3.2 h; Tmax at 29 days ([5]; male, Sprague-Dawley, rat, plasma, po, 100 mg/kg/day, rat M, oral 100 mg/kg/day, Day 29, mean (SD)): 3.2 h; Cmax ([5]; male, Sprague-Dawley, rat, plasma, po, 200 mg/kg/day, rat M, oral 200 mg/kg/day, Day 1, mean (SD)): 7250 ng/mL; half-life [5, 10]: 1 h; AUC(0-inf) [5, 11]: 80 ng·h/mL; clearance [5, 11]: 63.3 mL/min/kg; Vd [5, 10]: 2.7 L/kg; half-life [5, 12]: 3 h; AUC(0-inf) [5, 13]: 1550 ng·h/mL; clearance [5, 13]: 33.3 mL/min/kg; Vd [5, 12]: 2.2 L/kg; clearance ([5]; plasma, rat, IV): 33.3 to 63.3 mL/min/kg; half-life ([5]; plasma, rat, oral 3 mg/kg single dose): 5.2 h; AUC(0-inf) ([5]; plasma, rat, oral 3 mg/kg single dose, mean (SD)): 472 ng·h/mL; Vc ([5]; rat, IV 0.3 mg/kg single dose): 1.8 L/kg; Vβ ([5]; rat, IV 0.3 mg/kg single dose): 5.7 L/kg; Vc ([5]; rat, IV 3 mg/kg single dose): 0.46 L/kg; Vβ ([5]; rat, IV 3 mg/kg single dose): 9.4 L/kg; F ([5]; rat, oral 3 mg/kg single dose, mean (SD), 3 mg/kg): 30.5% and 30.5 (11.8) %; Cmax [5, 14]: 95 ng/mL; Tmax [5, 14]: 2.2 h; time-dependent inhibition of CYP2C19 ([6]; human liver microsomes): No obvious time-dependent inhibition; inhibition of CYP2C19 ([6]; up to 30 μM): did not inhibit; also recorded: not an inhibitor

Source: patent US20150118229A1, “JAK1 SELECTIVE INHIBITOR AND USES THEREOF” (ABBVIE INC., priority 2013, published 2015)
